Converted amounts (≈) assume the structure as drawn.
Experiments:
[1] = test system: Exophiala heteromorpha (ATCC 28180); conditions: E. heteromorpha; PDA; 7 days, 37 °C; albendazole at ½ MIC
Procedure: At the end of the seven days of incubation at 37 °C, the plates were read visually. The aspect of the colonies supplemented with albendazole were compared to those of the positive melanin and inhibition melanin controls, to determine whether the color of the albendazole-supplemented cultures resembled the positive DHN-melanin or the melanin inhibition control. Pictures of the colonies were captured using a Canon EOS Rebel T7+ digital camera.

[2] = test system: Fonsecaea monophora (CFP 00911); assay: MIC determination (EUCAST, minor modifications); type: cell-based; conditions: for Selectivity Index (SI): F. monophora
[3] = test system: Phialophora verrucosa (CFP 00937); assay: MIC determination (EUCAST, minor modifications); type: cell-based; conditions: for Selectivity Index (SI): P. verrucosa

## CCCSc1ccc2nc(NC(=O)OC)[nH]c2c1 [Albendazole]
[1]
  melanin production: did not observe a decrease in melanin production
[2]; CC50 HaCat 96 h / MIC
  Selectivity Index (SI): 136.16
[2]; CC50 Vero 24 h / MIC
  Selectivity Index (SI): 603.76
[2]; CC50 Vero 96 h / MIC
  Selectivity Index (SI): 418.49
[2]; Fonsecaea monophora
  MIC: 0.625 µM (≈ 0.166 µg/mL)
[3]; CC50 HaCat 96 h / MIC
  Selectivity Index (SI): 136.16
[3]; CC50 Vero 24 h / MIC
  Selectivity Index (SI): 603.76
[3]; CC50 Vero 96 h / MIC
  Selectivity Index (SI): 418.49
[3]; Phialophora verrucosa
  MIC: 0.625 µM (≈ 0.166 µg/mL)

Reference: paper PMC10381309 (Journal of Fungi, 2023)
